Source: the supplement of paper PMC10307832

Columns and labels:
Assay in all cases: relative viability (nuclei count vs DMSO), 5 days (fraction); higher = more cells survive
NCI-H2347 = tested on: NCI-H2347
Summary of the method: (§1)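 Relative viability was taken as the ratio of nuclei in treated wells to nuclei in vehicle wells. Lung cancer cell lines in 1536-well plates received compounds by pin tool one day after seeding, either one drug alone or a fixed anchor-drug dose plus five library-drug doses (not always all listed) in √10 steps. Nuclei were counted on 4× images after 5 days of treatment, and values are medians of duplicate plates.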

NCI-H522 = tested on: NCI-H522
Summary of the method: as §1

EMC-BAC-2 = tested on: EMC-BAC-2
Summary of the method: as §1

NCI-H3122 = tested on: NCI-H3122
Summary of the method: as §1

HCC-44 = tested on: HCC-44
Summary of the method: as §1

NCI-H838 = tested on: NCI-H838
Summary of the method: as §1

NCI-H1395 = tested on: NCI-H1395
Summary of the method: as §1

NCI-H2023 = tested on: NCI-H2023
Summary of the method: as §1

NCI-H1993 = tested on: NCI-H1993
Summary of the method: as §1

201T = tested on: 201T
Summary of the method: as §1

NCI-H727 = tested on: NCI-H727
Summary of the method: as §1

NCI-H23 = tested on: NCI-H23
Summary of the method: as §1

BEN = tested on: BEN
Summary of the method: as §1

LCLC-103H = tested on: LCLC-103H
Summary of the method: as §1

NCI-H647 = tested on: NCI-H647
Summary of the method: as §1

NCI-H2126 = tested on: NCI-H2126
Summary of the method: as §1

NCI-H441 = tested on: NCI-H441
Summary of the method: as §1

NCI-H596 = tested on: NCI-H596
Summary of the method: as §1

NCI-H2087 = tested on: NCI-H2087
Summary of the method: as §1

NCI-H650 = tested on: NCI-H650
Summary of the method: as §1

HARA = tested on: HARA
Summary of the method: as §1

LOU-NH91 = tested on: LOU-NH91
Summary of the method: as §1

SMILES: CCN(CC)CCCCNc1ncc2cc(-c3cc(OC)cc(OC)c3)c(NC(=O)NC(C)(C)C)nc2n1 + O=C(CCCCCCC(=O)Nc1ccccc1)NO [Vorinostat] (partner 1 µM)
- relative viability (NCI-H2347; first compound 0.01 µM): 0.509
- relative viability (NCI-H2347; first compound 0.03162 µM): 0.543
- relative viability (NCI-H2347; first compound 0.1 µM): 0.705
- relative viability (NCI-H2347; first compound 0.3162 µM): 0.588
- relative viability (NCI-H2347; first compound 1 µM): 0.472
- relative viability (NCI-H522; first compound 0.01 µM): 0.891
- relative viability (NCI-H522; first compound 0.03162 µM): 0.835
- relative viability (NCI-H522; first compound 0.1 µM): 1.19
- relative viability (NCI-H522; first compound 0.3162 µM): 0.948
- relative viability (NCI-H522; first compound 1 µM): 0.962
- relative viability (EMC-BAC-2; first compound 0.03162 µM): 0.403
- relative viability (EMC-BAC-2; first compound 0.1 µM): 0.428
- relative viability (EMC-BAC-2; first compound 0.3162 µM): 0.758
- relative viability (EMC-BAC-2; first compound 1 µM): 0.444
- relative viability (NCI-H3122; first compound 0.01 µM): 0.983
- relative viability (NCI-H3122; first compound 0.03162 µM): 1.06
- relative viability (NCI-H3122; first compound 0.1 µM): 1.09
- relative viability (NCI-H3122; first compound 0.3162 µM): 0.996
- relative viability (NCI-H3122; first compound 1 µM): 1.14
- relative viability (HCC-44; first compound 0.01 µM): 1.11
- relative viability (HCC-44; first compound 0.03162 µM): 1.08
- relative viability (HCC-44; first compound 0.1 µM): 1.16
- relative viability (HCC-44; first compound 0.3162 µM): 1.08
- relative viability (HCC-44; first compound 1 µM): 1.15
- relative viability (NCI-H838; first compound 0.01 µM): 0.669
- relative viability (NCI-H838; first compound 0.03162 µM): 0.732
- relative viability (NCI-H838; first compound 0.1 µM): 0.779
- relative viability (NCI-H838; first compound 0.3162 µM): 0.69
- relative viability (NCI-H838; first compound 1 µM): 0.592
- relative viability (NCI-H1395; first compound 0.01 µM): 0.648
- relative viability (NCI-H1395; first compound 0.03162 µM): 0.786
- relative viability (NCI-H1395; first compound 0.1 µM): 0.714
- relative viability (NCI-H1395; first compound 0.3162 µM): 0.742
- relative viability (NCI-H1395; first compound 1 µM): 0.513
- relative viability (NCI-H2023; first compound 0.01 µM): 0.534
- relative viability (NCI-H2023; first compound 0.03162 µM): 0.756
- relative viability (NCI-H2023; first compound 0.1 µM): 0.686
- relative viability (NCI-H2023; first compound 0.3162 µM): 0.6
- relative viability (NCI-H2023; first compound 1 µM): 0.567
- relative viability (NCI-H1993; first compound 0.01 µM): 0.776
- relative viability (NCI-H1993; first compound 0.03162 µM): 0.726
- relative viability (NCI-H1993; first compound 0.1 µM): 0.899
- relative viability (NCI-H1993; first compound 0.3162 µM): 0.882
- relative viability (NCI-H1993; first compound 1 µM): 0.695
- relative viability (201T; first compound 0.01 µM): 1
- relative viability (201T; first compound 0.03162 µM): 1.03
- relative viability (201T; first compound 0.1 µM): 0.973
- relative viability (201T; first compound 0.3162 µM): 0.981
- relative viability (201T; first compound 1 µM): 0.887
- relative viability (NCI-H727; first compound 0.01 µM): 1.2
- relative viability (NCI-H727; first compound 0.03162 µM): 1.09
- relative viability (NCI-H727; first compound 0.1 µM): 1.47
- relative viability (NCI-H727; first compound 0.3162 µM): 1.23
- relative viability (NCI-H727; first compound 1 µM): 1.23
- relative viability (NCI-H23; first compound 0.01 µM): 0.615
- relative viability (NCI-H23; first compound 0.03162 µM): 0.711
- relative viability (NCI-H23; first compound 0.1 µM): 0.715
- relative viability (NCI-H23; first compound 0.3162 µM): 0.467
- relative viability (NCI-H23; first compound 1 µM): 0.581
- relative viability (BEN; first compound 0.01 µM): 0.617
- relative viability (BEN; first compound 0.03162 µM): 0.547
- relative viability (BEN; first compound 0.1 µM): 0.579
- relative viability (BEN; first compound 0.3162 µM): 0.544
- relative viability (BEN; first compound 1 µM): 0.546
- relative viability (LCLC-103H; first compound 0.01 µM): 0.776
- relative viability (LCLC-103H; first compound 0.03162 µM): 0.805
- relative viability (LCLC-103H; first compound 0.1 µM): 0.775
- relative viability (LCLC-103H; first compound 0.3162 µM): 0.788
- relative viability (LCLC-103H; first compound 1 µM): 0.769
- relative viability (NCI-H647; first compound 0.01 µM): 0.525
- relative viability (NCI-H647; first compound 0.03162 µM): 0.645
- relative viability (NCI-H647; first compound 0.1 µM): 0.582
- relative viability (NCI-H647; first compound 0.3162 µM): 0.511
- relative viability (NCI-H647; first compound 1 µM): 0.491
- relative viability (NCI-H2126; first compound 0.01 µM): 0.771
- relative viability (NCI-H2126; first compound 0.03162 µM): 0.834
- relative viability (NCI-H2126; first compound 0.1 µM): 0.807
- relative viability (NCI-H2126; first compound 0.3162 µM): 0.834
- relative viability (NCI-H2126; first compound 1 µM): 0.822
- relative viability (NCI-H441; first compound 0.01 µM): 0.863
- relative viability (NCI-H441; first compound 0.03162 µM): 0.829
- relative viability (NCI-H441; first compound 0.1 µM): 0.811
- relative viability (NCI-H441; first compound 0.3162 µM): 0.776
- relative viability (NCI-H441; first compound 1 µM): 0.826
- relative viability (NCI-H596; first compound 0.01 µM): 0.658
- relative viability (NCI-H596; first compound 0.03162 µM): 0.699
- relative viability (NCI-H596; first compound 0.1 µM): 0.597
- relative viability (NCI-H596; first compound 0.3162 µM): 0.625
- relative viability (NCI-H596; first compound 1 µM): 0.579
- relative viability (NCI-H2087; first compound 0.01 µM): 0.669
- relative viability (NCI-H2087; first compound 0.03162 µM): 0.71
- relative viability (NCI-H2087; first compound 0.1 µM): 0.893
- relative viability (NCI-H2087; first compound 0.3162 µM): 0.886
- relative viability (NCI-H2087; first compound 1 µM): 0.514
- relative viability (NCI-H650; first compound 0.01 µM): 0.349
- relative viability (NCI-H650; first compound 0.03162 µM): 0.433
- relative viability (NCI-H650; first compound 0.1 µM): 0.498
- relative viability (NCI-H650; first compound 0.3162 µM): 0.525
- relative viability (NCI-H650; first compound 1 µM): 0.422
- relative viability (HARA; first compound 0.01 µM): 0.406
- relative viability (HARA; first compound 0.03162 µM): 0.483
- relative viability (HARA; first compound 0.1 µM): 0.528
- relative viability (HARA; first compound 0.3162 µM): 0.51
- relative viability (HARA; first compound 1 µM): 0.365
- relative viability (LOU-NH91; first compound 0.01 µM): 0.868
- relative viability (LOU-NH91; first compound 0.03162 µM): 0.99
- relative viability (LOU-NH91; first compound 0.1 µM): 1.04
- relative viability (LOU-NH91; first compound 0.3162 µM): 1.08
- relative viability (LOU-NH91; first compound 1 µM): 0.901
